Measured values reported in the supplement of paper PMC10883282.

Experiments:
Assay in all cases: relative viability vs DMSO control (72 h) (fraction); higher = more viable cells
SW1353 = test system: SW1353
In short: (§1)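 A 5 µM positive control and 0.1% DMSO vehicle ran alongside sarcoma cell lines seeded in 384-well plates to reach 80–90% confluence. Serially diluted compound, 2.5 µl from source plates of 10 mM to 0.0002 mM, was added after 24 h, and the plates were held 72 h at 37 °C, 5% CO2. Relative viability was worked out from ATPLite readings as percent growth averaged over up to triplicate wells. The values were rescaled so that 1 is full and 0 is none.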

SW684 = test system: SW684
In short: as §1

HT1080 = test system: HT1080
In short: as §1

HS729 = test system: HS729
In short: as §1

G401 = test system: G401
In short: as §1

SYO-1 = test system: SYO-1
In short: as §1

SK-LMS-1 = test system: SK-LMS-1
In short: as §1

KHOS-NP = test system: KHOS-NP
In short: as §1

RD = test system: RD
In short: as §1

SW872 = test system: SW872
In short: as §1

RD-ES = test system: RD-ES
In short: as §1

KHOS-240S = test system: KHOS-240S
In short: as §1

Cn1cnc2c(F)c(Nc3ccc(Br)cc3Cl)c(C(=O)NOCCO)cc21 [Selumetinib]
Details	relative viability
G401, 0.00017 µM	0.994
G401, 0.00051 µM	0.962
G401, 0.00152 µM	0.959
G401, 0.00457 µM	0.935
G401, 0.01372 µM	0.949
G401, 0.04115 µM	0.926
G401, 0.1235 µM	0.882
G401, 0.3704 µM	0.838
G401, 1.111 µM	0.78
G401, 3.333 µM	0.719
G401, 10 µM	0.627
HS729, 0.00017 µM	0.898
HS729, 0.00051 µM	0.929
HS729, 0.00152 µM	0.869
HS729, 0.00457 µM	0.894
HS729, 0.01372 µM	0.896
HS729, 0.04115 µM	0.902
HS729, 0.1235 µM	0.849
HS729, 0.3704 µM	0.843
HS729, 1.111 µM	0.846
HS729, 3.333 µM	0.82
HS729, 10 µM	0.794
HT1080, 0.00017 µM	0.96
HT1080, 0.00051 µM	0.97
HT1080, 0.00152 µM	0.974
HT1080, 0.00457 µM	0.9799
HT1080, 0.01372 µM	0.927
HT1080, 0.04115 µM	0.855
HT1080, 0.1235 µM	0.805
HT1080, 0.3704 µM	0.6793
HT1080, 1.111 µM	0.602
HT1080, 3.333 µM	0.491
HT1080, 10 µM	0.462
KHOS-240S, 0.00017 µM	1.03
KHOS-240S, 0.00051 µM	1.03
KHOS-240S, 0.00152 µM	1.01
KHOS-240S, 0.00457 µM	0.999
KHOS-240S, 0.01372 µM	0.959
KHOS-240S, 0.04115 µM	0.949
KHOS-240S, 0.1235 µM	0.91
KHOS-240S, 0.3704 µM	0.8785
KHOS-240S, 1.111 µM	0.864
KHOS-240S, 3.333 µM	0.782
KHOS-240S, 10 µM	0.723
KHOS-NP, 0.00017 µM	1.06
KHOS-NP, 0.00051 µM	1.03
KHOS-NP, 0.00152 µM	1.04
KHOS-NP, 0.00457 µM	1.04
KHOS-NP, 0.01372 µM	1.01
KHOS-NP, 0.04115 µM	0.965
KHOS-NP, 0.1235 µM	0.823
KHOS-NP, 0.3704 µM	0.727
KHOS-NP, 1.111 µM	0.526
KHOS-NP, 3.333 µM	0.351
KHOS-NP, 10 µM	0.277
RD, 0.00017 µM	1.06
RD, 0.00051 µM	1.04
RD, 0.00152 µM	1.04
RD, 0.00457 µM	0.977
RD, 0.01372 µM	0.931
RD, 0.04115 µM	0.875
RD, 0.1235 µM	0.749
RD, 0.3704 µM	0.703
RD, 1.111 µM	0.632
RD, 3.333 µM	0.593
RD, 10 µM	0.543
RD-ES, 0.00017 µM	0.958
RD-ES, 0.00051 µM	0.942
RD-ES, 0.00152 µM	0.95
RD-ES, 0.00457 µM	0.985
RD-ES, 0.01372 µM	0.973
RD-ES, 0.04115 µM	0.965
RD-ES, 0.1235 µM	0.927
RD-ES, 0.3704 µM	0.942
RD-ES, 1.111 µM	0.935
RD-ES, 3.333 µM	0.933
RD-ES, 10 µM	0.855
SK-LMS-1, 0.00017 µM	0.942
SK-LMS-1, 0.00051 µM	0.955
SK-LMS-1, 0.00152 µM	0.953
SK-LMS-1, 0.00457 µM	0.945
SK-LMS-1, 0.01372 µM	0.875
SK-LMS-1, 0.04115 µM	0.708
SK-LMS-1, 0.1235 µM	0.6
SK-LMS-1, 0.3704 µM	0.601
SK-LMS-1, 1.111 µM	0.5484
SK-LMS-1, 3.333 µM	0.491
SK-LMS-1, 10 µM	0.37
SW684, 0.00017 µM	1.04
SW684, 0.00051 µM	1.09
SW684, 0.00152 µM	1.06
SW684, 0.00457 µM	1.03
SW684, 0.01372 µM	1.03
SW684, 0.04115 µM	0.973
SW684, 0.1235 µM	0.969
SW684, 0.3704 µM	0.98
SW684, 1.111 µM	0.941
SW684, 3.333 µM	0.84
SW684, 10 µM	0.692
SW872, 0.00017 µM	0.957
SW872, 0.00051 µM	0.985
SW872, 0.00152 µM	0.951
SW872, 0.00457 µM	0.938
SW872, 0.01372 µM	0.894
SW872, 0.04115 µM	0.758
SW872, 0.1235 µM	0.654
SW872, 0.3704 µM	0.58
SW872, 1.111 µM	0.58
SW872, 3.333 µM	0.562
SW872, 10 µM	0.545
SW1353, 0.00017 µM	0.917
SW1353, 0.00051 µM	0.894
SW1353, 0.00152 µM	0.918
SW1353, 0.00457 µM	0.892
SW1353, 0.01372 µM	0.815
SW1353, 0.04115 µM	0.782
SW1353, 0.1235 µM	0.75
SW1353, 0.3704 µM	0.709
SW1353, 1.111 µM	0.724
SW1353, 3.333 µM	0.674
SW1353, 10 µM	0.652
SYO-1, 0.00017 µM	0.937
SYO-1, 0.00051 µM	0.931
SYO-1, 0.00152 µM	0.9523
SYO-1, 0.00457 µM	0.9263
SYO-1, 0.01372 µM	0.8956
SYO-1, 0.04115 µM	0.869
SYO-1, 0.1235 µM	0.829
SYO-1, 0.3704 µM	0.805
SYO-1, 1.111 µM	0.778
SYO-1, 3.333 µM	0.733
SYO-1, 10 µM	0.695

CO[C@H]1C[C@@H]2CC[C@@H](C)[C@@](O)(O2)C(=O)C(=O)N2CCCC[C@H]2C(=O)O[C@H]([C@H](C)C[C@@H]2CC[C@@H](OC(=O)C(C)(CO)CO)[C@H](OC)C2)CC(=O)[C@H](C)/C=C(\C)[C@@H](O)[C@@H](OC)C(=O)[C@H](C)C[C@H](C)/C=C/C=C/C=C/1C [Temsirolimus]
Details	relative viability
G401, 0.00017 µM	0.945
G401, 0.00051 µM	0.917
G401, 0.00152 µM	0.869
G401, 0.00457 µM	0.82
G401, 0.01372 µM	0.766
G401, 0.04115 µM	0.706
G401, 0.1235 µM	0.665
G401, 0.3704 µM	0.637
G401, 1.111 µM	0.621
G401, 3.333 µM	0.586
G401, 10 µM	0.396
HS729, 0.00017 µM	0.909
HS729, 0.00051 µM	0.926
HS729, 0.00152 µM	0.907
HS729, 0.00457 µM	0.931
HS729, 0.01372 µM	0.903
HS729, 0.04115 µM	0.854
HS729, 0.1235 µM	0.811
HS729, 0.3704 µM	0.758
HS729, 1.111 µM	0.753
HS729, 3.333 µM	0.739
HS729, 10 µM	0.388
HT1080, 0.00017 µM	1.02
HT1080, 0.00051 µM	1.01
HT1080, 0.00152 µM	1.05
HT1080, 0.00457 µM	1.01
HT1080, 0.01372 µM	0.95
HT1080, 0.04115 µM	0.918
HT1080, 0.1235 µM	0.936
HT1080, 0.3704 µM	0.929
HT1080, 1.111 µM	0.908
HT1080, 3.333 µM	0.8
HT1080, 10 µM	0.0491
KHOS-240S, 0.00017 µM	1.01
KHOS-240S, 0.00051 µM	0.954
KHOS-240S, 0.00152 µM	0.886
KHOS-240S, 0.00457 µM	0.833
KHOS-240S, 0.01372 µM	0.807
KHOS-240S, 0.04115 µM	0.802
KHOS-240S, 0.1235 µM	0.763
KHOS-240S, 0.3704 µM	0.748
KHOS-240S, 1.111 µM	0.662
KHOS-240S, 3.333 µM	0.581
KHOS-240S, 10 µM	0.222
KHOS-NP, 0.00017 µM	1.05
KHOS-NP, 0.00051 µM	1.05
KHOS-NP, 0.00152 µM	1.03
KHOS-NP, 0.00457 µM	1.044
KHOS-NP, 0.01372 µM	1.05
KHOS-NP, 0.04115 µM	1.036
KHOS-NP, 0.1235 µM	1.04
KHOS-NP, 0.3704 µM	1
KHOS-NP, 1.111 µM	0.96
KHOS-NP, 3.333 µM	0.907
KHOS-NP, 10 µM	0.0158
RD, 0.00017 µM	1.09
RD, 0.00051 µM	1.01
RD, 0.00152 µM	0.91
RD, 0.00457 µM	0.84
RD, 0.01372 µM	0.792
RD, 0.04115 µM	0.755
RD, 0.1235 µM	0.735
RD, 0.3704 µM	0.681
RD, 1.111 µM	0.667
RD, 3.333 µM	0.578
RD, 10 µM	0.441
RD-ES, 0.00017 µM	0.908
RD-ES, 0.00051 µM	0.865
RD-ES, 0.00152 µM	0.771
RD-ES, 0.00457 µM	0.745
RD-ES, 0.01372 µM	0.687
RD-ES, 0.04115 µM	0.656
RD-ES, 0.1235 µM	0.625
RD-ES, 0.3704 µM	0.568
RD-ES, 1.111 µM	0.526
RD-ES, 3.333 µM	0.435
RD-ES, 10 µM	0.107
SK-LMS-1, 0.00017 µM	0.916
SK-LMS-1, 0.00051 µM	0.699
SK-LMS-1, 0.00152 µM	0.6325
SK-LMS-1, 0.00457 µM	0.597
SK-LMS-1, 0.01372 µM	0.537
SK-LMS-1, 0.04115 µM	0.495
SK-LMS-1, 0.1235 µM	0.477
SK-LMS-1, 0.3704 µM	0.472
SK-LMS-1, 1.111 µM	0.464
SK-LMS-1, 3.333 µM	0.441
SK-LMS-1, 10 µM	0.0134
SW684, 0.00017 µM	1.06
SW684, 0.00051 µM	1.04
SW684, 0.00152 µM	0.956
SW684, 0.00457 µM	0.919
SW684, 0.01372 µM	0.799
SW684, 0.04115 µM	0.711
SW684, 0.1235 µM	0.752
SW684, 0.3704 µM	0.79
SW684, 1.111 µM	0.767
SW684, 3.333 µM	0.767
SW684, 10 µM	-0.00523
SW872, 0.00017 µM	0.85
SW872, 0.00051 µM	0.805
SW872, 0.00152 µM	0.759
SW872, 0.00457 µM	0.682
SW872, 0.01372 µM	0.643
SW872, 0.04115 µM	0.594
SW872, 0.1235 µM	0.569
SW872, 0.3704 µM	0.553
SW872, 1.111 µM	0.516
SW872, 3.333 µM	0.518
SW872, 10 µM	0.461
SW1353, 0.00017 µM	0.892
SW1353, 0.00051 µM	0.859
SW1353, 0.00152 µM	0.827
SW1353, 0.00457 µM	0.781
SW1353, 0.01372 µM	0.745
SW1353, 0.04115 µM	0.72
SW1353, 0.1235 µM	0.68
SW1353, 0.3704 µM	0.664
SW1353, 1.111 µM	0.63
SW1353, 3.333 µM	0.602
SW1353, 10 µM	0.149
SYO-1, 0.00017 µM	0.884
SYO-1, 0.00051 µM	0.877
SYO-1, 0.00152 µM	0.878
SYO-1, 0.00457 µM	0.83
SYO-1, 0.01372 µM	0.798
SYO-1, 0.04115 µM	0.749
SYO-1, 0.1235 µM	0.687
SYO-1, 0.3704 µM	0.633
SYO-1, 1.111 µM	0.589
SYO-1, 3.333 µM	0.544
SYO-1, 10 µM	0.323
